Measurements from patent publication US12044651B2, “Sensor device and methods” (SCENTIAN BIO LIMITED, priority 2016, dated 2024).

What was measured:
[1] = CNT-FET control, pristine CNT FET and empty nanodisc functionalized CNT FET (Example 2)
Procedure: In order to carry out the electrical measurements the devices were set up with the PDMS well and source, drain and gate electrodes, via micromanipulators and a Rucker and Kolls probe station, as shown in FIG. 9. Before starting the electrical measurements, 100 μl of PBS buffer (containing 1% DMSO) was added into the testing well. The gate electrode is an Ag/AgCl wire (In Vivo Metric) sheathed in plastic where the exposed area at the end of Ag/AgCl was completely inserted into the PBS buffer to avoid any electrical artefacts that are known to occur when changing the active area of the gate electrode. An Agilent 4156C parameter analyser is used for all electrical measurements^20. The parameter analyser has excellent sensitivity and can accurately measure currents on the femto-amp scale.
During transfer (Vlg−Ids) measurements the gate voltage (Vlg) is swept between −500 mV to +1 V and the source drain voltage (Vds) is set as fixed values (50 mV, 100 mV or 200 mV). For our real time sensing measurement the Vlg is set to 0 and Vds is set as fixed values (50 mV, 100 mV or 200 mV, with a time step of 1 s.
The E-2-hexenal ligand solution is diluted from our 100 mM stock solution, to the concentration ranges required for the sensing experiments. […]

Or22a = target: T1, Or22a (Drosophila melanogaster, UniProt P81909); assay: QCM-D sensor with Or22a liposomes (Example 6); assay type: binding; conditions: 1.6 to 200 μM
T1 sequence (P81909 1-397): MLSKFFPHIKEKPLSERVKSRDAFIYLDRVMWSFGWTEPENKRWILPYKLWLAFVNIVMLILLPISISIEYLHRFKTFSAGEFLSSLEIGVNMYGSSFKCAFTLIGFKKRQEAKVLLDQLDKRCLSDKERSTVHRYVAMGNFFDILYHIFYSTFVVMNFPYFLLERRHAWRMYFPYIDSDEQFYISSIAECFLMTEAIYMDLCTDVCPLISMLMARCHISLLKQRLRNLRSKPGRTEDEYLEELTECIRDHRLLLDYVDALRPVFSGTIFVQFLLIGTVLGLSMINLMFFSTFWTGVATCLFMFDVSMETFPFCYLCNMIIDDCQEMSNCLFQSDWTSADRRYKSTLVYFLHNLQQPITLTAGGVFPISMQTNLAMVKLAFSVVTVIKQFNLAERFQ
Procedure: Gold (100 nm) sensor crystals were sonicated in ethanol and milli-Q water for 15 minutes each respectively. A 5:1:1 volume ratio of milli-Q water, ammonia (25%), and hydrogen peroxide (30%) was heated to 75° C. for 5 minutes and the sonicated crystals were placed in the heated solution for 5 minutes. Then the crystals were removed from the solution and rinsed with milli-Q water before drying with nitrogen gas. The clean gold crystals were thiol-functionalized by exposing them to 2 mM ethanolic solution of MHA overnight followed by washing with ethanol solution in order to remove excess or loosely bound molecules.

OR71a = target: T2, OR71a (Drosophila melanogaster, UniProt Q9VUK5); assay: EIS sensor, Or71a liposomes on gold electrode, optimized conditions (Example 5); assay type: binding
T2 sequence (Q9VUK5 1-378): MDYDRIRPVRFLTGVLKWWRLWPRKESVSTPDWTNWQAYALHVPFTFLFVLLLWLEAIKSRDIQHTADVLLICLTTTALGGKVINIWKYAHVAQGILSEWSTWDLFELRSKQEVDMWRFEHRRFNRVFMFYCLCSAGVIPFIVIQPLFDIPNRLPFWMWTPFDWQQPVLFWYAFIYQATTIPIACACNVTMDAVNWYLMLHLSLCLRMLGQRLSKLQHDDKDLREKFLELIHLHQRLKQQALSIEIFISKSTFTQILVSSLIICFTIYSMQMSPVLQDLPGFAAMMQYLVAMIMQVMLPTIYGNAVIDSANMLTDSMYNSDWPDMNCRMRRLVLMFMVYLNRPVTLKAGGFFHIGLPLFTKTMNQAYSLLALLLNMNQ

CCC/C=C/C=O [E2-hexenal]
real time current response [1]: no clear current response

CCCCCC(=O)OC [methyl hexanoate]
change in oscillation frequency (Or22a): increase in the frequency

COC(=O)c1ccccc1O [methyl salicylate]
EIS response to control ligand (OR71a): do not respond
